{
  "source": "paper PMC5800971",
  "about": "(European journal of medicinal chemistry, 2017)",
  "key": {"[1]": {"test_system": "MCF7 breast cancer cell line", "assay": "Colorimetric MTT cytotoxicity assay", "format": "cell-based"}, "[2]": {"test_system": "breast cancer cell line MDA-MB-231", "assay": "Alamar Blue cytotoxicity assay", "format": "cell-based", "conditions": "for fold less potent than ipomoeassin F: MDA-MB-231"}, "[3]": {"test_system": "A2780 human ovarian cancer cell line", "assay": "Cytotoxicity of ipomoeassins A-F", "format": "cell-based", "conditions": "from Table 1 values"}, "[4]": {"test_system": "human breast epithelial cell line MCF-10A", "assay": "Alamar Blue cytotoxicity assay", "format": "cell-based", "conditions": "MCF-10A vs MDA-MB-231 / MCF7"}, "[5]": {"test_system": "A2780 human ovarian cancer cell line", "conditions": "read-out: IC50 (nM) A2780; A2780 human ovarian cancer cells; cited from earlier work"}},
  "data": [
    {"smiles": "C/C=C(\\C)C(=O)O[C@@H]1[C@@H](O)[C@@H]2O[C@H]3[C@H](O[C@@H](CCCCC)CCCCCOC(=O)CCC(=O)OC[C@@H](O2)[C@H]1OC(=O)/C=C/c1ccccc1)O[C@H](C)[C@H](OC(C)=O)[C@@H]3O", "note": "[Analogue 1]", "values": [
      {"measurement": "fold less potent than ipomoeassin F", "setting": "[1]", "result": "~2", "unit": "fold"},
      {"measurement": "fold less potent than ipomoeassin F", "setting": "[2]", "result": "about 4 fold"}
    ]},
    {"smiles": "C/C=C(\\C)C(=O)O[C@@H]1[C@@H](O)[C@@H]2O[C@H]3[C@H](O[C@@H](CCCCC)C/C=C\\CCOC(=O)CCC(=O)OC[C@@H](O2)[C@H]1OC(=O)/C=C/c1ccccc1)O[C@H](C)[C@H](OC(C)=O)[C@@H]3O", "note": "[Analogue 24]", "values": [
      {"measurement": "fold more potent than the E-counterpart 23", "setting": "[2]; breast cancer cell lines of Table 2 (MDA-MB-231, MCF7)", "result": "~ 3 fold"}
    ]},
    {"smiles": "C/C=C(\\C)C(=O)O[C@@H]1[C@@H](O)[C@@H]2O[C@H]3[C@H](O[C@@H](CCCCC)CCCCCN(C)C(=O)CCC(=O)OC[C@@H](O2)[C@H]1OC(=O)/C=C/c1ccccc1)O[C@H](C)[C@H](OC(C)=O)[C@@H]3O", "note": "[Analogue 21]", "values": [
      {"measurement": "fold less potent than ipomoeassin F", "setting": "[1]", "result": "≤ 2", "unit": "fold"},
      {"measurement": "fold less potent than ipomoeassin F", "setting": "[2]", "result": "≤ 2", "unit": "fold"}
    ]},
    {"smiles": "C/C=C(\\C)C(=O)O[C@@H]1[C@@H](O)[C@@H]2O[C@H]3[C@H](O[C@@H](CCC)CCCCC[C@H](OC(C)=O)C(=O)CCC(=O)OC[C@@H](O2)[C@H]1OC(=O)/C=C/c1ccccc1)O[C@H](C)[C@H](OC(C)=O)[C@@H]3O", "note": "[Ipomoeassin D]", "values": [
      {"measurement": "fold potency enhancement, R1 H to OAc (A vs. D)", "setting": "[3]; A2780", "result": "up to 14 fold"}
    ]},
    {"smiles": "C/C=C(\\C)C(=O)O[C@@H]1[C@@H](O)[C@@H]2O[C@H]3[C@H](O[C@@H](CCC)CCCCC[C@H](O)C(=O)CCC(=O)OC[C@@H](O2)[C@H]1OC(=O)/C=C/c1ccccc1)O[C@H](C)[C@H](OC(C)=O)[C@@H]3O", "note": "[Ipomoeassin C]", "values": [
      {"measurement": "fold activity difference between ipomoeassin C and ipomoeassin A/D", "setting": "[3]", "result": "up to 80 fold"}
    ]},
    {"smiles": "C/C=C(\\C)C(=O)O[C@@H]1[C@@H](O)[C@@H]2O[C@H]3[C@H](O[C@@H](CCCCC)CCCCCNC(=O)CCC(=O)OC[C@@H](O2)[C@H]1OC(=O)/C=C/c1ccccc1)O[C@H](C)[C@H](OC(C)=O)[C@@H]3O", "note": "[Analogue 2]", "values": [
      {"measurement": "selectivity between tumor and non-tumor cells", "setting": "[4]", "result": "slight selectivity towards MDA-MB-231 cells"}
    ]},
    {"smiles": "C/C=C(\\C)C(=O)O[C@@H]1[C@@H](O)[C@@H]2O[C@H]3[C@H](O[C@@H](CCC)CCCCC[C@H](OC(C)=O)C(=O)CCC(=O)OC[C@@H](O2)[C@H]1OC(=O)/C=C/c1ccccc1)O[C@H](C)[C@H](O)[C@@H]3O", "note": "[Ipomoeassin E]", "values": [
      {"measurement": "IC50", "setting": "[5]", "result": 3300, "unit": "nM"},
      {"measurement": "fold activity loss, R1 H to OAc (B vs. E)", "setting": "[3]; A2780", "result": 8, "unit": "fold"}
    ]},
    {"smiles": "C/C=C(\\C)C(=O)O[C@@H]1[C@@H](O)[C@@H]2O[C@H]3[C@H](O[C@@H](CCCCC)CCCCOC(=O)CCC(=O)OC[C@@H](O2)[C@H]1OC(=O)/C=C/c1ccccc1)O[C@H](C)[C@H](OC(C)=O)[C@@H]3O", "note": "[Analogue 25]", "values": [
      {"measurement": "fold activity loss compared to 1", "setting": "[1]", "result": 9, "unit": "fold"},
      {"measurement": "fold activity loss compared to 1", "setting": "[2]; MDA-MB-231 (printed MBA-BD-231)", "result": 9, "unit": "fold"}
    ]}
  ]
}
